This note sets out measurements from a melting point compilation (Tetko et al.; mined from patent text by program, amines drawn as free bases though some values may be those of a salt).

What is called melting point is the temperature of the solid-liquid transition.

The structures appear in SMILES notation.

Compound `O=C1NC(=O)C(=Cc2cc(O)c(O)c([N+](=O)[O-])c2)S1` had a melting point of 295 to 298 °C.

Consider `Nc1nccn2c(C3CCC3)nc(-c3ccccc3)c12`, for which the melting point lay in the range of 164 to 166 °C.

`C=C(CCCCCCCCCCCCCC)C(=O)O`: the melting point was in the range of 49.5 to 50 °C.

`Cc1ccc(S(=O)(=O)Nc2ccc3[nH]c(=O)c4ccccc4c3c2)cc1` gave a melting point of 199 to 203 °C.

Compound `CC(C)(C)c1cc(N=C=O)no1` showed a melting point of 165 to 167 °C.

Compound `Cc1coc2c(c1=O)N(C)S(=O)(=O)c1ccccc1-2` came in with a melting point of 214 to 216 °C.

`CC(=O)N(C)[C@@H]1CN2C(=O)N(c3cc(Cl)cc(Cl)c3)C(=O)[C@@]2(Cc2ccc(OC(F)(F)F)cc2)C1` gave a melting point of 74.7 °C.

`Cc1cnc(CCCC#N)c([N+](=O)[O-])c1` came in with a melting point of 53 to 55 °C.

With `COc1cc2nc(S(=O)Cc3cccn4ccnc34)[nH]c2cc1OC` (configuration not stated), the melting point fell in the range of 195 to 196 °C.

In turn, `Cc1c(CC(=O)OCCO)cc(-c2ccc(S(C)(=O)=O)cc2)n1-c1ccc(F)cc1` registered a melting point of 129 to 131 °C.

`Cn1ccnc1Sc1ccc(Nc2c(C#N)cnc3cc(/C=C/CCN4CCC(N5CCCC5)CC4)sc23)cc1Cl` returned a melting point of 213 to 216 °C.

Compound `CCc1nn(-c2cc(NC(=O)CCOC)ccc2Cl)c(=O)n1Cc1ccc(-c2ccccc2S(=O)(=O)NC(=O)OC(C)(C)C)cc1F` yielded a melting point of 128 to 131 °C.

Compound `CSc1cc(C(C)(C)C)c(O)c(-c2nc3ccc(S(=O)(=O)C(F)(F)F)cc3[nH]2)c1C` returned a melting point of 210 to 211 °C.

Compound `Cn1nnnc1CC(O)(Cn1cncn1)c1ccc(Cl)cc1Cl` (configuration not stated) had a melting point of 182 to 184 °C.

Consider `CCOC(=O)c1c(N)oc(-c2ccc([N+](=O)[O-])cc2)c1C(=O)OCC`, for which the melting point is 174 to 177 °C.

In the case of `N#Cc1ccc(N2CC(CO)OC2=O)cc1` (configuration not stated), the melting point is 186 °C.

For the compound `CCC(F)c1cc(N2CCNCC2)cc(-c2ccccc2C#N)c1Cl` (configuration not stated), the melting point came out at 159 °C.

Compound `N#CC(C(=O)Nc1ccc(F)cc1F)C(=O)c1ccc[nH]1` (configuration not stated) gave a melting point of 169 to 171 °C.

The compound `Cn1cc(C(=O)NCc2ccc(Cl)cc2)c(=O)c2cc(CN3CCOCC3)cc(C#CCCO)c21` registered a melting point of 168 to 170 °C.

Compound `Cc1nc2cc3c(cc2c(=O)n1COC(=O)C(C)(C)C)C(Br)CC3` (configuration not stated) yielded a melting point of 98 °C.

The compound `COCCOc1cccc(-c2ccc(C3CCN(S(=O)(=O)C(C)(C)C(=O)O)CC3)cc2C)n1` gave a melting point of 142 to 146 °C.

In the case of `CCOC(=O)c1nnc2ccc(-c3ccco3)cc2c1O`, the melting point was in the range of 198 to 200 °C.

On to `CC(=O)C(=O)Oc1c(C)cc(Nc2ccn(-c3ccccc3)n2)cc1C`, for which the melting point lay in the range of 123 to 125 °C.

On to `CC(C)(CCl)C(=O)N(O)Cc1ccccc1Cl`, for which the melting point was 108 to 110 °C.

`COc1ccc2c(C)c(CCN3CCN(c4ccccc4OC)CC3)c(=O)oc2c1` came in with a melting point of 129 to 130 °C.

`CCCc1ccc2nc(Cl)c(S(N)(=O)=O)n2n1`: the melting point is 174 to 175 °C.

In the case of `Nc1nc(N)c(-c2cc(Cl)cc(Cl)c2Cl)c(CF)n1`, the melting point was in the range of 215 to 217 °C.

Turning to `CCOC(=O)C1=C(C)Nc2ccnc(OC(C)C)c2C1c1ccccc1` (configuration not stated), the melting point is 136 to 137 °C.

In turn, `COc1cc2c3c(n(CCCCO)c(=O)c2cc1OC)-c1cc2c(cc1C3=O)OCO2` gave a melting point of 304 to 308 °C.

With `COc1ccc(C(=O)Nc2ccc(F)c(F)c2)cc1NS(=O)(=O)c1cc(Cl)cc(Cl)c1`, the melting point was in the range of 228 to 231 °C.

For the compound `CC(C)(C)OC(=O)CNC(=O)c1sc(Nc2ccccc2)c2c1CCc1cnoc1-2`, the melting point lay in the range of 115 to 116 °C.

For `Cc1noc(C)c1CN1CC2(COc3cc4c(cc32)OCO4)c2ccccc21` (configuration not stated), the melting point is 165 to 167 °C.

In the case of `CCn1c(C(O)(Cc2ccccc2)Cc2ccccc2)nc(-c2ccncc2)c1-c1ccc(Cl)cc1`, the melting point lay in the range of 116 to 117 °C.

`OCc1ccc(OCc2ccc(-c3ccccc3)cn2)cc1` yielded a melting point of 159 to 160 °C.

`NC(=O)[C@@H]1[C@H](Nc2ccnc3[nH]c(-c4ccc(N5CCOCC5)cc4)nc23)[C@H]2C=C[C@@H]1C2` gave a melting point of 240 to 244 °C.

Take `CC(=O)OC1CSC(Oc2ccc(-c3cccnc3F)nc2Cl)C(OC(C)=O)C1OC(C)=O` (configuration not stated): the melting point is 227 °C.

`CN(C(N)=O)c1nc(Cl)nc(Cl)n1` registered a melting point of 172 to 174 °C.

`N#Cc1ccc(C(O)Cc2ccc(C#N)cc2[N+](=O)[O-])cc1` (configuration not stated) came in with a melting point of 147 to 153 °C.

Regarding `COc1cnc(CCl)nc1O`, the melting point was 87 °C.

For the compound `C=Cc1c(OC)nc(-c2ccc(Cl)c(OC)c2F)nc1C(=O)OC`, the melting point fell in the range of 107 to 108 °C.

As for `Cn1nc(N)c2cc3ccc(O)cc3nc21`, the melting point lay in the range of 288 to 290 °C.

Compound `Cc1ccccc1NC(=O)Nc1ccc(C(=O)N2CCCCc3ccccc32)cc1` came in with a melting point of 182 °C.

Compound `CCOC(=O)Cn1cc(F)cnc1=O` showed a melting point of 121 °C.

Regarding `COC1CN(c2ccc([N+](=O)[O-])cc2F)C1`, the melting point fell in the range of 57.5 to 58 °C.

In the case of `CCOC(=O)c1cc2c3n(ccc-2n1)C(Br)C(C)=N3` (configuration not stated), the melting point lay in the range of 224 to 226 °C.

Turning to `Cn1c(=O)n(Cc2ccc(Cl)cc2Cl)c(=O)c2ccc(C(=O)O)cc21`, the melting point was 308 to 310 °C.

`CC(=O)ON(CCOc1ccc2c(c1)CCN(CCCc1ccc(F)cc1)C2=O)C(N)=O` came in with a melting point of 113 to 114 °C.

`CC(C)c1cc2c(cc1Oc1cnc(N)nc1N)OCCN2C` had a melting point of 167 to 170 °C.

For `CC(C)(C)C(S)(CC#N)C(C)(C)C`, the melting point fell in the range of 154 to 155 °C.

In turn, `COc1ccc(CS(=O)(=O)CC(=O)O)cc1O` showed a melting point of 164 to 165 °C.

Turning to `CN1CC[C@]2(c3ccccc3)CCCC[C@H]2C1` (relative stereo), the melting point lay within 72 to 73 °C.

On to `CC=CC=CC(=O)N1CC1C#N` (configuration not stated), for which the melting point was in the range of 56 to 58 °C.

For the compound `CN(C)CC(=O)NCc1nc(C(=O)N(C)C)nn1-c1ccc(Cl)cc1C(=O)c1ccccc1Cl`, the melting point fell in the range of 122 to 124 °C.

The compound `COC(=O)c1ccc(OCCCBr)cc1NC(=O)C=Cc1ccc(-c2ccccc2)cc1` yielded a melting point of 142 to 145 °C.

`CC(Cl)c1cc(F)ccc1Oc1nc2ccc(-n3cc(-c4ccccc4)nn3)cc2cc1Cc1ccccc1` (configuration not stated) displayed a melting point of 151 to 152 °C.

For `Cc1c(C(=O)Nc2ccc(N3CCC(N4CCC(=O)CC4)CC3)c(C#N)c2)cnn1-c1ccc(Cl)cc1`, the melting point worked out at 213 °C.

Turning to `Cn1c([N+](=O)[O-])cnc1C(N)=S`, the melting point is 148 to 150 °C.

`COc1ccc(-c2c3c(nn2-c2ccccc2)-c2cccc(N)c2C3=O)cc1`: the melting point came to 273 °C.

`Cc1ccc2ncccc2c1C(=O)NCC1CCCCC1` yielded a melting point of 165 °C.

Consider `COc1ccccc1Oc1c(NS(=O)(=O)c2ccc(C(C)(C)C)cc2)nc(OCCO)nc1OCCOc1ncc(Br)cn1`, for which the melting point lay in the range of 73.5 to 77 °C.

Regarding `O=C(c1ccc(O)cc1)c1ccc(OCCBr)cc1`, the melting point fell in the range of 136 to 138 °C.

The compound `Cc1ccsc1C(=O)Cc1ccc(Cl)cc1[N+](=O)[O-]` gave a melting point of 105 to 107 °C.

As for `COCC1CN(C(=O)c2cc(OC)c(OC)c(OC)c2)CCN1C(=O)C1=Cc2cc(OC)c(OC)cc2CCC1` (configuration not stated), the melting point was found to be 137 °C.

On to `O=C(NCc1ccc([N+](=O)[O-])cc1)OCc1ccccc1`, for which the melting point lay within 92 to 93 °C.

With `C[Si](C)(C)CCCCCCCNC(=O)n1cc(F)c(=O)[nH]c1=O`, the melting point lay in the range of 118 to 119 °C.

The compound `CC(=O)Nc1ccn([C@@H]2C[C@H](OC(C)=O)[C@@H](O)[C@H]2O)c(=O)n1` (racemic) yielded a melting point of 98 to 100 °C.

Turning to `CN(C)c1ccc(C(=N)NC=Cc2ccc([N+](=O)[O-])cc2)cc1`, the melting point is 191 to 193 °C.

`CNC(=O)c1cc2c(Oc3ccc(C(=O)NCCN4CCOCC4)cc3)cncc2s1` registered a melting point of 226 to 228 °C.

Compound `C#CCOC(=O)c1ncn2c1[C@@H]1CCCN1C(=O)c1c(Cl)cccc1-2` returned a melting point of 213 to 214 °C.

Compound `Fc1ccc2c(c1F)OCCN2` registered a melting point of 48 to 54 °C.

For `O=C(Nc1ccc2c(c1)C(=O)C1(CC1)O2)OCc1ccccc1`, the melting point fell in the range of 118 to 119 °C.

Consider `CCS(=O)c1cc2c(c3c1OC(C)(C)C3)C(c1ccccc1)=NC(C)(C)C2` (configuration not stated), for which the melting point is 146 to 147 °C.

As to `Cc1c(C(=O)O)cccc1C(=O)c1ccc(Cl)cc1`, the melting point amounted to 205 °C.

In turn, `CCCCc1cc(N)n2nccc2n1` registered a melting point of 124 to 126 °C.

In turn, `COC(=O)C1CC2c3cccc4[nH]cc(c34)CC2N(C(C)C)C1` (configuration not stated) displayed a melting point of 193 to 195 °C.

Compound `COC(=O)C(=C(C)C)N1C(=O)[C@H]([C@H](C)OC(=O)OCc2ccc([N+](=O)[O-])cc2)[C@@H]1Cl` returned a melting point of 154 to 157 °C.

`CN(C)CCCNc1ccc([N+](=O)[O-])cc1` came in with a melting point of 60 to 61.5 °C.

`COC(=O)C1=C(C)NC(C)=C(C(=O)OCCN)C1c1cccc2c(=O)c(C)c(-c3ccccc3)oc12` (configuration not stated) registered a melting point of 188 to 192 °C.

Take `CN1N=C2C(=Cc3ccccc3)CN(C(=O)CCl)CC2C1c1ccccc1` (configuration not stated): the melting point lay in the range of 88 to 90 °C.

Take `COc1ccccc1NC(=O)Nc1ccc(CC(=O)OC(C)(C)C)cc1OC`: the melting point lay within 132 to 134 °C.

Regarding `c1ccc(COCCCCOCc2ccccc2)cc1`, the melting point was 18 °C.

Turning to `Cc1ccc(CN2CCSC2=O)cc1`, the melting point is 49 to 50 °C.

The compound `C[Si](C)(C)Oc1nc(-c2ccccc2)nc2c1CC(S(=O)(=O)c1ccccc1)CC2` (configuration not stated) came in with a melting point of over 250 °C.

On to `O=C(O)CCc1cn(Cc2ccc(OCc3ccc(-c4ccccc4)nc3)cc2)nc1-c1ccccc1`, for which the melting point was in the range of 155 to 156 °C.

The compound `CCCCCC(C)C(C)c1cc(O)c2c(c1)OC(C)(C)c1ccncc1-2` (configuration not stated) came in with a melting point of 155 to 157 °C.

The compound `CCCCNCCCOc1ccc(-c2ccc(C(=O)O)cc2)cc1-c1ccc2c(c1)C(C)(C)CCC2(C)C` displayed a melting point of 238 °C.

`N#Cc1ccc(OCCCN2CCC(C(O)(c3ccc(F)cc3)c3ccc(F)cc3)CC2)cc1` registered a melting point of 107 to 108 °C.
